Test results taken from EP2045247B1, “Compounds for the inhibition of histone deacetylase” (NatureWise Biotech & Medicals Corporation, priority 2007, dated 2009).

What was measured:
[1] = system: human giloblastoma DBTRG-05MG cancer cells; experiment: Inhibition of growth and change of morphology of DBTRG-05MG cells; format: cell-based; conditions: NBM-HD-1 2.5, 5 and 10 µg/mL, sodium butyrate 4 mM; 72 hours; density and cell counting (Fig. 7)
Description: The human giloblastoma DBTRG-05MG cancer cells were cultured in RPMI medium 1640 (Gibco) supplemented with penicillin G, streptomycin sulphate, 0.5 mM of L-glutamine and 10% fetal bovine serum (FBS; Gibco), 100mh/L sodium pyruvate (Gibco), and 1% NEAA (Gibco) at 37 °C, 5% CO2 and 95% relative humidity. For these experiments, the cells were seeded at a density of 3×10^5 per well of 6-well plates. After 24 hours, the cells were treated with different concentrations of NBM-HD-1 and 4 mM sodium butyrate. The cells were observed and counted after 72 hours. […] In 05MG cells (Fig. 7(A)), after incubation with 2.5 µg/mL (Fig. 7(A)-b), 5 µg/mL (Fig. 7(A)-c) and 10 µg/mL (Fig.7(A)-d) of NBM-HD-1 for 72 hours, the density of the cells reduced dramatically in comparison with that of the control group (Fig. 7(A)-a). The 05MG cells in the experimental group also changed to become longer than those in the control group.

acetylated histone H4 = experiment: Western blotting of hyperacetylated histone H4 in C6 glioma cell lysates; format: cell-based, rat; conditions: C6 glioma cells
Description: Accumulation of hyperacetylated histone H4 was analyzed in the cell lysates by using Western Blotting and the antibody directed against acetylated histone H4 (Upstate). The C6 glioma cells were seeded at a density of 1×10^6 per 10cm culture dish. After 24 hours, the cells were treated with 10 µg/mL of NBM-HD-1 or 4mM sodium butyrate for several hours. The whole-cell lysates were prepared by using denaturing SDS sample buffer and then separated on 15% SDS-polyacrylamide gels. […] The amount of acetylated histones was hardly detectable in untreated C6 glioma cells. The amount of acetylated histone H4 of the cells treated with 4mM sodium butyrate for 2 hours increased. Sodium butyrate was then removed from the culture medium. After 6 hours, the amount of acetylated histone H4 decreased. The accumulation of acetylated histone H4 increased in the cells treated with NBM-HD-1 for 2 hours. […] The highest histone acetylation appeared at 6 hours after the compound had been removed. […] Because NBM-HD-1 is more hydrophobic than sodium butyrate, NBM-HD-1 can be retained in the cells longer than sodium butyrate and continuously induce the acetylation of histone H4.

[2] = system: breast cancer MCF-7 cells; experiment: Inhibition of growth and change of morphology of MCF-7 cells; format: cell-based, human; conditions: 2.5, 5, 7.5 and 10 µg/mL; for morphology of MCF-7 cells: 72 hours (Fig. 13(A), Fig. 14(A)); for growth of MCF-7 cancer cells: sodium butyrate 4mM, observed and counted after 72 hours (Fig. 13, Fig. 14)
Description: The breast cancer MCF-7 cells, were cultured in Dulbecco's modified Eagle's medium (DMEM; Gibco) supplemented with penicillin G, streptomycin sulphate, 0.5 mM of L-glutamine and 10% fetal bovine serum (FBS; Gibco) at 37 °C, 5% CO2 and 95% relative humidity. The cells were seeded at a density of 3×10^5 per well of 6-well plates. After 24 hours, the cells were treated with different concentrations of compound NBM-HD-1 and 4mM sodium butyrate being used as the positive control. The cells were observed after 48 hours and counted after 96 hours. […] In Fig. 8(A), after the cells were incubated with 2.5 µg/mL (Fig. 8(A)-b), 5 µg/mL (Fig. 8(A)-c) and 10 µg/mL (Fig. 8(A)-d) of NBM-HD-1 for 48 hours, the density of MCF-7 cells reduced dramatically in comparison with that of the control group (Fig. 8(A)-a). The morphology of the MCF-7 cells in the experimental group changed in comparison with that in the control group. […] The results of the cell counting (FIG. 8(B)) indicate that, similar to sodium butyrate, NBM-HD-1 inhibits cell growth.
MCF-7 cancer cells were seeded at a density of 3×10^5 per well in 6-well plates. After 24 hours, the cells were treated with different concentrations of compound NBM-HD-2 and 4mM sodium butyrate being used as the positive control. The cells were observed and counted after 72 hours. […] In Fig. 13(A), after the cells were incubated with 2.5 µg/mL (Fig. 13(A)-c), 5 µg/mL (Fig. 13(A)-d), 7.5 µg/mL (Fig. 13(A)-e) and 10 µg/mL (Fig. 13(A)-f) of NBM-HD-2 for 72 hours, the density of MCF-7 cells reduced dramatically in comparison with that of the control group (Fig. 13(A)-a). The morphology of the MCF-7 cells in the experimental group changed in comparison with that in the control group.
MCF-7 cancer cells were seeded at a density of 3×10^5 per well of 6-well plates. After 24 hours, the cells were treated with different concentrations of compound NBM-HD-3 and 4mM sodium butyrate, which was being used as the positive control. The cells were observed and counted after 72 hours. […] In Fig. 14(A), after the cells were incubated with 2.5 µg/mL (Fig. 14(A)-c), 5 µg/mL (Fig. 14(A)-d), 7.5 µg/mL (Fig. 14(A)-e) and 10 µg/mL (Fig. 14(A)-f) of NBM-HD-3 for 72 hours, the density of MCF-7 cells reduced dramatically in comparison with that of the control group (Fig. 14(A)-a). The morphology of the MCF-7 cells in the experimental group changed in comparison with that in the control group. […] The results of the cell counting (FIG. 14(B)) indicate that, similar to sodium butyrate, NBM-HD-3 inhibits cell growth.

| Compound | growth of 05MG cells [1] | accumulation of acetylated histone H4, treated for 2 hours (acetylated histone H4; 10 µg/mL NBM-HD-1 or 4mM sodium butyrate, 2 hours (Fig. 5)) | amount of acetylated histone H4 after removal of the compound from the culture medium (acetylated histone H4; up to 6 hours after removal (Fig. 5)) | morphology of MCF-7 cells [2] | growth of MCF-7 cancer cells [2] |
| --- | --- | --- | --- | --- | --- |
| CCCC(=O)[O-].[Na+] [sodium butyrate, reference compound] | could inhibit the proliferation of 05MG cancer cells | increased | decreased | – | – |
| COc1cc2c(c(O)c1CCC(C)(C)O)C(=O)C[C@@H](c1ccc(OC)c(OC)c1C/C=C(\C)CCCC(C)(C)O)O2 [NBM-HD-3] | – | – | – | change their morphology | can inhibit the growth of MCF-7 cancer cells in a dose-dependent manner |
| COc1cc2c(c(O)c1CC=C(C)C)C(=O)C[C@@H](c1ccc(OC)c(OC)c1C/C=C(\C)CCCC(C)(C)O)O2 [NBM-HD-2] | – | – | – | change their morphology | can inhibit the growth of MCF-7 cancer cells in a dose-dependent manner |
